Laboratory results as given in patent publication US20200009143A1, “REPURPOSING OF CANCER DRUGS FOR TREATMENT OF MYCOBACTERIUM” (STC.UNM, priority 2016, published 2020).

How the values were obtained:
[1] = tested on: RAW 264.7 macrophages; conditions: PARP inhibition; cited from earlier work
[2] = molecular target: PARP (Mus musculus, UniProt P11103); assay: whole cell PARP inhibition in UV-activated RAW 264.7 macrophages, PARP activity by ELISA; assay type: cell-based
[3] = tested on: tuberculosis; conditions: systemically delivered, despite significant plasma levels; cited from earlier work
[4] = human, in vivo; cited from earlier work
[5] = in vivo; cited from earlier work

Chain of PARP (P11103 2-1013): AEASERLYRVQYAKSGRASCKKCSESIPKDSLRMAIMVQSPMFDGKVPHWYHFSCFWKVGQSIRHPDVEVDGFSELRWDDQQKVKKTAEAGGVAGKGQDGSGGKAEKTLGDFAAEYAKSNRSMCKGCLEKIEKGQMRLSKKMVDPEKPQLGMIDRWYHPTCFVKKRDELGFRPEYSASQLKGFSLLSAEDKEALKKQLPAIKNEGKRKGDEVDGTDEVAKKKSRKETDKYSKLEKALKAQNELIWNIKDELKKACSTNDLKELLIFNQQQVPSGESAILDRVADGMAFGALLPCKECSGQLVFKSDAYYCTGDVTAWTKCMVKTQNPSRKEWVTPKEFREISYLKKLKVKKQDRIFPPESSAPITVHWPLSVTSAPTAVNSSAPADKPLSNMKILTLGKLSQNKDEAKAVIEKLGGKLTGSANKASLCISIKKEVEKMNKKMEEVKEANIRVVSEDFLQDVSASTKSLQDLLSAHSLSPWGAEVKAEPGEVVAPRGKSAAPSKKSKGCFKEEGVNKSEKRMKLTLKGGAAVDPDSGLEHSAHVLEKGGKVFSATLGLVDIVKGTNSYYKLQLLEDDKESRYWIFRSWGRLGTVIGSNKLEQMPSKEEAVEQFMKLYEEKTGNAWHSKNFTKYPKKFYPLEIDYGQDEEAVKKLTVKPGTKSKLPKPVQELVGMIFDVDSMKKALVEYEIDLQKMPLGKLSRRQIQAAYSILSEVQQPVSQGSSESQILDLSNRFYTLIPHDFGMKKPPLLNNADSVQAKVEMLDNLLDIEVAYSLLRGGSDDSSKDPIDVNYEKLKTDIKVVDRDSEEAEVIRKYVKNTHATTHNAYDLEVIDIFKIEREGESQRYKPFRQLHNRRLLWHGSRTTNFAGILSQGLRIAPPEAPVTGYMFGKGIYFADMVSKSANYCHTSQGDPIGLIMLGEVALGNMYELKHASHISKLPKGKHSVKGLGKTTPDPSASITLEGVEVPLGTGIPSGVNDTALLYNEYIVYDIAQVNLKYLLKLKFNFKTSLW

| Compound | inhibition of mycobacteria-induced macrophage necrosis [1] | PARP inhibition (in words) ([2]; at levels readily achieved during conventional PZA therapy) | ratio of plasma Cmax/IC50 ([2]; known peak plasma level in TB patients over whole-cell PARP IC50) | efficacy in vivo [3] | steady state peak plasma level [4] | distribution in human granulomas [5] |
| --- | --- | --- | --- | --- | --- | --- |
| NC(=O)c1cccc(N)c1 [3-aminobenzamide] | strongly inhibited | – | – | – | – | – |
| O=C(O)c1cnccn1 [POA, pyrazinoic acid] | – | potent inhibitor | 20 | ineffective | 300 µM | wide distribution |
| NC(=O)c1cnccn1 [PZA, pyrazinamide] | – | – | – | – | about 500 μM | – |
